Assay results taken from PubChem BioAssay AID1259407 (Chemical Carcinogenesis Research Information System (CCRIS), 2018).
Activity calls are given as the source filed them. How the calls were made is not given here.

Tested on: CCRIS mutagenicity, Ames/micronucleus/aberration tests
Experiment: CCRIS mutagenicity studies
Settings: Test System: AMES SALMONELLA TYPHIMURIUM

Structure (SMILES): Nc1ccc(-c2ccccc2)cc1
- mutagenic call (Strain/Indicator: DJ400, Metabolic Activation: TOBACCO TX1 CELLS, Method: PREINCUBATION): inactive; negative
- mutagenic call (Strain/Indicator: DJ460, Metabolic Activation: TOBACCO TX1 CELLS, Method: PREINCUBATION): active; positive
- mutagenic call (Strain/Indicator: MP110, Metabolic Activation: TOBACCO TX1 CELLS, Method: PREINCUBATION): inactive; negative
- mutagenic call (Strain/Indicator: MP120, Metabolic Activation: TOBACCO TX1 CELLS, Method: PREINCUBATION): inactive; negative
- mutagenic call (Strain/Indicator: MP208, Metabolic Activation: TOBACCO CELL-FREE TXIMX, Method: PREINCUBATION): active; positive
- mutagenic call (Strain/Indicator: MP219, Metabolic Activation: TOBACCO CELL-FREE TXIMX, Method: PREINCUBATION): active; positive
- mutagenic call (Strain/Indicator: TA97, Metabolic Activation: NONE, Method: STANDARD PLATE): inactive; negative
- mutagenic call (Strain/Indicator: TA97, Metabolic Activation: RAT, LIVER, S-9, AROCLOR 1254, Method: STANDARD PLATE): active; positive
- mutagenic call (Strain/Indicator: TA98(1,8-DNP6), Metabolic Activation: PLANT CELLS, Method: PREINCUBATION): active; positive
- mutagenic call (Strain/Indicator: TA98(1,8-DNP6), Metabolic Activation: TOBACCO CELL-FREE TXIMX, Method: PREINCUBATION): inactive; negative
- mutagenic call (Strain/Indicator: TA98(NR), Metabolic Activation: TOBACCO CELL-FREE TXIMX, Method: PREINCUBATION): active; positive
- mutagenic call (Strain/Indicator: TA98, Metabolic Activation: HUMAN, RED BLOOD CELL, CYTOSOL, Method: PREINCUBATION): active; positive
- mutagenic call (Strain/Indicator: TA98, Metabolic Activation: HUMAN, UROEPITHELIAL CELL CYTOSOL, Method: PREINCUBATION): inactive; negative
- mutagenic call (Strain/Indicator: TA98, Metabolic Activation: HUMAN, UROEPITHELIAL CELL, MICROSOMES, Method: PREINCUBATION): inactive; negative
- mutagenic call (Strain/Indicator: TA98, Metabolic Activation: HUMAN, UROEPITHELIAL CELL, S-9, Method: PREINCUBATION): inactive; negative
- mutagenic call (Strain/Indicator: TA98, Metabolic Activation: NONE, Method: PREINCUBATION): inactive; negative
- mutagenic call (Strain/Indicator: TA98, Metabolic Activation: PLANT CELLS, Method: PREINCUBATION): active; positive
- mutagenic call (Strain/Indicator: TA98, Metabolic Activation: RAT LIVER S-9, AROCLOR 1254, Method: PREINCUBATION): active; positive
- mutagenic call (Strain/Indicator: TA98, Metabolic Activation: RAT LIVER S-9, AROCLOR, Method: STANDARD PLATE): active; positive
- mutagenic call (Strain/Indicator: TA98, Metabolic Activation: RAT, BLADDER, S-9, PCB, Method: FLUCTUATION TEST): active; positive
- mutagenic call (Strain/Indicator: TA98, Metabolic Activation: RAT, LIVER, S-9, AROCLOR 1254 (4%), Method: STANDARD PLATE): active; positive
- mutagenic call (Strain/Indicator: TA98, Metabolic Activation: RAT, LIVER, S-9, KC500 OR PHENOBARBITAL, Method: LIQUID SUSPENSION): active; positive
- mutagenic call (Strain/Indicator: TA98, Metabolic Activation: TOBACCO CELL-FREE TXIMX, Method: PREINCUBATION): active; positive
- mutagenic call (Strain/Indicator: TA100 (1,8-DNP), Metabolic Activation: MOUSE LIVER S-9, AROCLOR 1254, 10%, Method: PREINCUBATION): active; positive
- mutagenic call (Strain/Indicator: TA100 (1,8-DNP), Metabolic Activation: RAT LIVER S-9, AROCLOR 1254, 10%, Method: PREINCUBATION): active; positive
- mutagenic call (Strain/Indicator: TA100(NR), Metabolic Activation: TOBACCO CELL-FREE TXIMX, Method: PREINCUBATION): active; positive
- mutagenic call (Strain/Indicator: TA100(TN:OAT), Metabolic Activation: TOBACCO CELL-FREE TXIMX, Method: PREINCUBATION): active; positive
- mutagenic call (Strain/Indicator: TA100, Metabolic Activation: MOUSE LIVER S-9, AROCLOR 1254, 10%, Method: PREINCUBATION): active; positive
- mutagenic call (Strain/Indicator: TA100, Metabolic Activation: NONE, Method: PREINCUBATION): inactive; negative
- mutagenic call (Strain/Indicator: TA100, Metabolic Activation: RAT LIVER S-9, AROCLOR 1254, 10%, Method: PREINCUBATION): active; positive
- mutagenic call (Strain/Indicator: TA100, Metabolic Activation: RAT LIVER S-9, AROCLOR 1254, Method: PREINCUBATION): active; positive
- mutagenic call (Strain/Indicator: TA100, Metabolic Activation: RAT LIVER S-9, AROCLOR, Method: STANDARD PLATE): active; positive
- mutagenic call (Strain/Indicator: TA100, Metabolic Activation: RAT, BLADDER, S-9, PCB, Method: FLUCTUATION TEST): inactive; negative
- mutagenic call (Strain/Indicator: TA100, Metabolic Activation: RAT, LIVER, S-9, KC500 OR PHENOBARBITAL, Method: LIQUID SUSPENSION): active; positive
